Assay: Water sorption/desorption by dynamic vapor sorption (DVS)
Format: physicochemical
Settings: water sorption/desorption chamber
Description: Table 4 provides a summary of other solid state data collected for the monohydrate salts of compound 1 described in Examples 33-39. The temperature at which the salts dehydrated per DSC is shown in column 2. The percent weight loss as determined by TGA is shown in column 3; the weight loss approximated theoretical weight loss.

Weight gain from 0 to 20% RH from DVS	Weight gain from 0 to 90% RH from DVS	SMILES
0.87	5.68	O.O.O=C(O)CC(O)C(=O)O.O=c1[nH]cnc2c(CN3CC(O)C(CO)C3)c[nH]c12.O=c1[nH]cnc2c(CN3CC(O)C(CO)C3)c[nH]c12 [Hemi-L-malate]
5.44	6.04	O.O.O=C(O)CCC(=O)O.O=c1[nH]cnc2c(CN3CC(O)C(CO)C3)c[nH]c12.O=c1[nH]cnc2c(CN3CC(O)C(CO)C3)c[nH]c12 (stereo not shown) [Hemisuccinate]

— patent publication US8501753B2, “Useful pharmaceutical salts of 7-[(3R, 4R)-3-Hydroxy-4-hydroxymethyl-pyrrolidin-1-ylmethyl]-3, 5-dihydro-pyrrolo [3, 2-D] pyrimidin-4-one” (BioCryst Pharmaceuticals, Inc., priority 2009, dated 2013)
